Measured values taken from patent US11376231B2, “Compositions of bioactive fulvate fractions and uses thereof” (OMNI BIOCEUTICAL INNOVATIONS, INC., priority 2016, dated 2022).
Where two headings read alike, the source gives them in different places. Ends that are not written are not given here.

Experiments:
[1] = system: chronic wounds; parameters: key: N.S. = not statistically significant; settings: cited from earlier work
[2] = system: human keratinocytes; assay: Stimulation of keratinocytes: expression of antimicrobial peptides/polypeptides (Northern blot, ELISA, immunoblot, immunostaining); format: cell-based; settings: for expression of the antimicrobial peptides/polypeptides hCAP-18, hBD-3, NGAL, and SLPI: human keratinocytes; for mRNA for hBD-3 (induction): not detected in unstimulated cells
Protocol: SDS-PAGE and immunoblotting were performed with Bio-Rad systems according to instructions given by the manufacturer (Bio-Rad, Hercules, Calif.). For immunoblotting, after the transfer of proteins from the 14% polyacrylamide gels, the polyvinylidene difluoride (PVDF) membranes (Millipore, Bedford, Mass.) were blocked for 1 h with 5% skimmed milk in PBS. For detection of hCAP-18, NGAL, and SLPI, the PVDF membranes were incubated overnight with primary antibodies. The following day, the membranes were washed and incubated for 2 h with alkaline phosphatase-conjugated secondary antibodies (DAKO, Glostrup, Denmark) then washed and visualized by 5'-bromo-chloro-indolyl phosphate (Sigma-Aldrich) and nitro blue tetrazolium (Sigma-Aldrich). Medium from keratinocytes was extracted with MacroPrep CM Support beads (Bio-Rad) overnight at 4° C. The beads were subsequently washed and bound material was eluted with 30% acetic acid. The eluted material was dialyzed in 5% acetic acid and lyophilized before resuspension in sample buffer for acid urea (AU)-PAGE. AU-PAGE and immunoblotting were performed according to instructions given by the manufacturer (Hoeffer, San Francisco, Calif.). After transfer of proteins from the 12.5% acrylamide gels, the PVDF membranes were fixed for 30 min in TBS with 0.05% glutaraldehyde (Sigma-Aldrich), followed by blocking with Superblock Blocking Buffer (Pierce, Rockford, Ill.). For visualization of hBD-3, the PVDF membranes were incubated overnight with primary antibodies. The following day, the membranes were incubated for 2 h with HRP-conjugated secondary antibodies, (Pierce) and visualized by Immun-Star HRP luminal/enhancer and Immun-Star peroxide buffer (Bio-Rad). Cells were grown in serum-free keratinocyte medium from Clonetics (KGM-2 Bullet Kit; San Diego, Calif.) with bovine pituitary extract, transferrin, human epidermal growth factor (EGF), hydrocortisone, gentamicin, amphotericin B, and epinephrine, but without insulin. Cells were stimulated beginning 24 h after complete confluence was reached. Cells and medium was harvested 0, 3, 6, 12, 24, and 48 h after stimulation with IGF-I (100 ng/mL), TGF-α (50 ng/mL), TGF-β1 (10 ng/mL), hFGF (100 ng/mL), IGF-I/TGF-α, IL-1β (20 ng/mL), IL-6 (100 ng/mL), EGF (100 ng/mL), and INF-α (20 ng/mL). […] The RNA was transferred to a Hybond-N membrane (Amersham Pharmacia Biotech, Little Chalfont, U.K.) by capillary blotting and was fixed by UV irradiation. The filters were pre-hybridized for a minimum of 30 min at 42° C. in 10 mL of ULTRAhyb (Ambion, Austin, Tex.) and hybridized overnight at 42° C. after the addition of an additional 5 mL of ULTRAhyb containing the P-labeled probe. The membranes were washed twice for 5 min each time at 42° C. in 2×SSC (1×SSC=150 mM NaCl/15 mM sodium citrate, pH 7.0)/0.1% SDS, followed by twice for 15 min each time in 2×SSC/0.1% SDS, once for 15 min in 0.2×SSC/0.1% SDS, and once for 15 min in 0.1×SSC/0.1% SDS at 42° C. The blot was developed and quantified by a phosphorimager (Fuji Imager Analyzer BAS-2500, Image Reader version 1.4E, image Gauge version 3.01 software; Fuji, Stockholm, Sweden). The sizes of the mRNAs were determined by reference to 18S and 285 rRNA, which were visualized by ethidium bromide staining. The membranes were stripped by boiling in 0.1% SDS before re-hybridization. The probes used for hybridization were cDNA fragments radiolabeled with [α-P]dCTP using the Random Primers DNA Labeling System (Life Technologies). The probes NGAL, hCAP-18, hBD-2, and β-actin have previously been described. The probes for SLPI, hBD-1, and hBD-3 were amplified from cDNA from keratinocytes with the following primers: SLPI, [NT] II) NO: 1), and [NT] ID NO: 2); hBD-1, [NT] ID NO: 3), and [NT] ID NO: 4); and hBD-3, [NT] ID NO: 5), and [NT] ID NO: 6). The probe for hBD-4 was amplified from genomic DNA using the following primers: [NT] ID NO: 7) and [NT] II) NO: 8). PCR-amplified probes were cloned into plasmids and verified by DNA sequencing. […]

[3] = system: CBA Epidermal Culture; assay: Tissue repair in human epidermal cell culture with 4-mm defect (bFGF, M-007); format: cell-based
Protocol: A 4-mm mucosal defect was surgically made in the CBA Epidermal Culture. The formulation Sol. of bFGF, M-007, and control saline was injected along the edge of the wound defect immediately after scratch. The control group received only phosphate-buffered saline vehicle.
By day 5, FGFR1-positive cells were seen below the stratum corneum, even in the control group. […] Each sample was repeated in duplicate, thus FIG. 2 represents the average of each sample. P1-2 are control plates 1 and 2 and are epidermal cell culture with no external treatment. P3-4 is epidermal cell culture treated with phosphate buffered saline only. P5-6 is epidermal cell culture treated with bFGF. P7-8 is epidermal cell culture treated with bFGF sol. No. 00376. […] No. 00321A. […] No. 0032113. […] No. 00321A @ 70/30 ratio. […] No. 00321A @ 30/70 ratio. […] No. 00321A 70/30 ratio. P21-22 is epidermal cell culture treated with bFGF sol. […] No. 00321A @50/50 ratio. P23-24 is epidermal cell culture treated with bFGF sol. […] No. 00321A @30/70 ratio.

[4] = system: skin wounds; assay: Screen of tigerinin-based peptides for wound-healing ability
Description: Two antimicrobial peptides (tigerinin-RC1: […] (SEQ ID NO: 9); tigerinin-RC2: […] (SEQ ID NO: 10)) have been previously identified from the skin secretions of Fejervarya cancrivora. […] Here, several peptides based on tigerinins are synthesized to screen candidates containing potential wound-healing ability.

In the case of “EGF: epidermal growth factor (NSDSECPLSHDGYCLHDGVCMYIEALDKYACNCVVGYIGERCQYRDLKWWELR; UniProt P01133 971-1023, looked up)”, the Results ([1]; venous (44), 10 μg/mL twice per day, Falanga et al.) is listed as “N.S”.

For “GM-CSF: granulocyte-macrophage colony-stimulating factor”, the Results ([1]; venous + arterial (25), 400 μg injected once around the wound, da Costa et al.) is given as “N.S”.

In the case of HGH: human growth hormone, the Results ([1]; venous (37), 1 IU/cm^2 per week, Rasmussen et al.) is listed as “N.S”.

For IGF-I: insulin growth factor-1, the “expression of hBD-1 relative to the housekeeping gene β-actin” value ([2]; 24 h) was 3 fold, the “expression of hBD-1 relative to the housekeeping gene β-actin” value ([2]; 48 h) was 7 fold and the “expression of the antimicrobial peptides/polypeptides hCAP-18, hBD-3, NGAL, and SLPI” value [2] was “induce or enhance”. The “hCAP-18 at the protein level (ELISA) and the mRNA level” value ([2]; keratinocytes) was “up-regulated” and the “mRNA for hBD-3 (induction)” value ([2]; keratinocytes) was “did not induce”.

For IL-1B: interleukin-1B, the Results ([1]; pressure (25), 0.01, 0.1, and 1 μg/cm^2 daily, Robson et al.) is listed as “N.S”.

In the case of TGF-α: a transforming growth factor, the “expression of the antimicrobial peptides/polypeptides hCAP-18, hBD-3, NGAL, and SLPI” value [2] is reported as “induce or enhance”, the “mRNA for hBD-3 (induction)” value ([2]; keratinocytes) is reported as “significantly induced” and the “hBD-3 in the medium by immunoblot” value ([2]; medium from stimulated keratinocytes, not in unstimulated cells) is reported as “detected”.

In the case of bFGF: basic fibroblast growth factor, the “collagen maturation (histologic analysis)” value [3] is reported as “relatively faster”, the “granular tissue formation and re-epithelialization” value [3] is reported as “significantly accelerated” and the “number and intensity of FGFR1-positive cells versus control group” value ([3]; day 5) is reported as “greater than in the control group”. The Results ([1]; diabetic (17), 0.25 to 0.75 μg/cm^2 daily, Richard et al.) was “N.S” and the Results ([1]; pressure (50), 1, 5, and 10 μg/cm^2, Robson et al.) was “N.S”.

In the case of “c [WCKPKPKPRCH-NH2] (SEQ ID NO: 11) (not fully specified (bridges); also: cyclic, ring type and places not given here; listed as Fejervarya cancrivora) [M-007 fulvate isolated peptide, tigerinin-based synthesized small peptide]”, the wound-healing ability [4] is reported as “potent healer of skin wounds”.
